PubChem BioAssay (NCI)
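Each compound was tested at five concentrations against cells in 96-well plates for 48 hours. Here, GI50 denotes the concentration required for 50% inhibition of growth. Definition used: TGI = concentration required for complete inhibition of growth.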

Tests used:
Assay in all cases: inhibition of tumour cell growth, NCI panel, 48 h
786-0 renal = system: 786-0 renal
ACHN renal = system: ACHN renal
DU-145 prostate = system: DU-145 prostate
HL-60(TB) leukemia = system: HL-60(TB) leukemia
MDA-MB-231 breast = system: MDA-MB-231 breast
NCI-H23 lung = system: NCI-H23 lung
OVCAR-3 ovarian = system: OVCAR-3 ovarian
OVCAR-5 ovarian = system: OVCAR-5 ovarian
UACC-257 melanoma = system: UACC-257 melanoma
BT-549 breast = system: BT-549 breast

Row | Structure (SMILES) | TGI (786-0 renal) | TGI (ACHN renal) | TGI (DU-145 prostate) | TGI (HL-60(TB) leukemia) | TGI (MDA-MB-231 breast) | TGI (NCI-H23 lung) | TGI (OVCAR-3 ovarian) | TGI (OVCAR-5 ovarian) | TGI (UACC-257 melanoma) | GI50 (786-0 renal) | GI50 (ACHN renal) | GI50 (HL-60(TB) leukemia) | GI50 (MDA-MB-231 breast) | GI50 (NCI-H23 lung) | GI50 (OVCAR-5 ovarian) | GI50 (UACC-257 melanoma) | GI50 (OVCAR-3 ovarian) | GI50 (DU-145 prostate) | TGI (BT-549 breast) | GI50 (BT-549 breast)
1 | COc1ccc(/C(Cl)=C(\C=O)c2ccc([N+](=O)[O-])cc2)cc1OC | 20.1 µM | 25 µM | > 100 µM | 11.6 µM | 83.9 µM | 15.8 µM | 38 µM | > 100 µM | 29.7 µM |  |  |  |  |  |  |  |  |  |  | 
2 | Cc1ccc(-c2nc(SCC(=O)O)n[nH]2)cc1 | > 100 µM | > 100 µM |  | > 100 µM |  | > 100 µM | > 100 µM | > 100 µM | > 100 µM |  |  |  |  |  |  |  |  |  |  | 
3 | Cc1ccc(NC(=O)c2cccc([N+](=O)[O-])c2O)c([N+](=O)[O-])c1 | 37 µM | 58.1 µM |  | > 100 µM |  | 27.6 µM | 44.1 µM | 39.4 µM | 33.4 µM |  |  |  |  |  |  |  |  |  |  | 
4 | Cc1ccc(C2NC(=S)NC3=C2CCOc2c3ccc3ccccc23)cc1 (configuration not stated) | > 100 µM | > 100 µM |  | > 100 µM | > 100 µM | > 100 µM |  | > 100 µM | > 100 µM | > 100 µM | 44 µM | 5.86 µM | 26.3 µM | > 100 µM | > 100 µM | > 100 µM |  |  |  | 
5 | CCC[CH2][Sn]([CH2]CCC)([O]C(=O)c1cc(F)cc(F)c1)[O]C(=O)c1cc(F)cc(F)c1 | 2.49 µM | 2.61 µM |  | 2.17 µM |  | 2 µM | 2.65 µM | 2.96 µM | 2.28 µM | 1.25 µM | 1.33 µM | 0.409 µM |  | 0.7 µM | 1.6 µM | 1.09 µM | 1.36 µM |  |  | 
6 | COC1(OC)CC2C=C(S(=O)(=O)c3ccccc3)C1N(Cc1ccccc1)C2=O (configuration not stated) | > 100 µM | > 100 µM |  | 50.5 µM |  | 40.5 µM | 56.6 µM |  | > 100 µM |  |  |  |  |  |  |  |  |  |  | 
7 | ClC1=C(Cl)C(Cl)=C(Cl)C1=C/C=C/c1ccccc1 | 2.05 µM | 0.855 µM | 1.32 µM |  | > 100 µM | 1.14 µM | 0.532 µM | 0.968 µM | 0.41 µM | 0.444 µM | 0.318 µM | 0.329 µM | 0.344 µM | 0.257 µM | 0.338 µM | 0.184 µM | 0.239 µM | 0.42 µM |  | 
8 | NC(=O)C1=NNc2ccccc2C(=O)N1c1ccccc1 | > 100 µM | > 100 µM | > 100 µM |  | > 100 µM |  | > 100 µM | > 100 µM | > 100 µM |  |  |  |  |  |  |  |  |  | > 100 µM | 
9 | CCOC(=O)C(=O)Nc1ccc(C)cc1C | > 100 µM | > 100 µM |  | > 100 µM |  | > 100 µM | > 100 µM | > 100 µM | > 100 µM |  |  |  |  |  |  |  |  |  |  | 
10 | CSC(C1c2ccccc2N(C)C2=NC(=O)N(C)C(=O)C21Cl)S(=O)(=O)c1ccc(C)cc1 (configuration not stated) | 33.2 µM | > 100 µM |  | 39.7 µM |  | 83.5 µM | 43.3 µM | > 100 µM | > 100 µM |  |  |  |  |  |  |  |  |  |  | 
11 | COc1cc2c(cc1OC)-c1cc3cc(OC)c(OC)cc3n1CC2 | 66.6 µM | 85.9 µM |  | > 100 µM |  | > 100 µM | > 100 µM | > 100 µM | > 100 µM |  |  |  |  |  |  |  |  |  |  | 
12 | Cn1c2c(c3ccccc31)C1CCCCC1C1C(=O)NC(=O)C21 (configuration not stated) | > 100 µM | > 100 µM |  | 63.5 µM |  | > 100 µM | 58 µM | > 100 µM |  |  |  |  |  |  |  |  |  |  |  | 
13 | OCCCN=NNc1ccc(-c2nc3ccccc3[nH]2)cc1 | 46.7 µM | 64 µM | > 100 µM | 96.2 µM | 12.7 µM |  | 5.13 µM | > 100 µM | > 100 µM | 17 µM | 24.4 µM | 25.2 µM | 3.31 µM |  | > 100 µM | 10.4 µM | 2.31 µM | 4.12 µM | 96.8 µM | 34.4 µM
14 | COc1ccc(/C(=N/NC(=O)NN)C(c2ccc(OC)cc2)C2(O)CNc3c(Cl)cc(Cl)cc32)cc1 (configuration not stated) | > 100 µM | > 100 µM |  | > 100 µM |  | > 100 µM | > 100 µM | > 100 µM | > 100 µM |  |  |  |  |  |  |  |  |  |  | 
15 | Brc1ccc(-c2nnc(-c3nn(-c4ccccc4)c4nc5ccccc5nc34)o2)cc1 | > 100 µM | > 100 µM |  | > 100 µM |  | > 100 µM | > 100 µM | > 100 µM | > 100 µM |  |  |  |  |  |  |  |  |  |  | 
16 | CC(C)C1OC(=O)C=C1Sc1ccccc1 (configuration not stated) | > 100 µM | > 100 µM | > 100 µM | > 100 µM | > 100 µM |  | > 100 µM | > 100 µM | > 100 µM |  |  |  |  |  |  |  |  |  | > 100 µM | 
17 | COc1cc(/C=C/c2cc(/C=C/c3ccc(O)c(OC)c3)n(-c3c(C)cccc3C)c(=O)n2)ccc1O | 3.41 µM | 10.6 µM |  | 1.11 µM | 9.95 µM | 3.98 µM | 6.6 µM | 9.59 µM | 6.54 µM | 0.958 µM | 0.399 µM | 0.271 µM | 1.76 µM | 1.25 µM | 2.65 µM | 1.62 µM | 1.37 µM |  |  | 
18 | COc1ccc(/C=C2\CCCCC2=O)cc1 | > 100 µM | > 100 µM |  | > 100 µM |  | > 100 µM | > 100 µM |  |  |  |  |  |  |  |  |  |  |  |  | 
19 | O=S(O)CCCCCSSCCCCSSCCCCCS(=O)O | > 100 µM | > 100 µM |  |  |  | > 100 µM | > 100 µM | > 100 µM | > 100 µM |  |  |  |  |  |  |  |  |  |  | 
20 | CC1C[C@H](OC(N)=O)C(C)CC1=O (some centres not stated) | > 100 µM | > 100 µM |  | > 100 µM |  | > 100 µM | > 100 µM | > 100 µM | > 100 µM |  |  |  |  |  |  |  |  |  |  | 
21 | CN(C)c1ccc(N=Cc2c([O-])ccc3ccccc23)cc1.[C-]#[O+].[C-]#[O+].[Ir] | 65.1 µM | 43.7 µM |  |  |  | 36.8 µM | 32.4 µM | 64.3 µM | 37.1 µM | 25.1 µM | 18.8 µM |  |  | 15.3 µM | 29.1 µM | 16.3 µM | 16.6 µM |  |  | 
22 | COC1=CC(O)(CC(N)=O)c2ccccc2C1=O (configuration not stated) | > 100 µM | > 100 µM |  | > 100 µM |  |  | > 100 µM | > 100 µM | > 100 µM |  |  |  |  |  |  |  |  |  |  | 
